The source of these data is ChEMBL document CHEMBL3596187, “Design and synthesis of membrane-targeting antibiotics: from peptides- to aminosugar-based antimicrobial cationic amphiphiles” (2014).

What all share (type): functional
Assay [1] relates to Porphyromonas gingivalis. In words: Antimicrobial activity against protease-positive Porphyromonas gingivalis by agar dilution method. Background: In agar dilution, organisms are placed on agar that contains the substance at set levels.
The subject of assay [2] is Porphyromonas circumdentaria. Put plainly: Antimicrobial activity against protease-positive Porphyromonas circumdentaria by agar dilution method.
The test system of assay [3] is Porphyromonas cangingivalis. Put plainly: Antimicrobial activity against protease-positive Porphyromonas cangingivalis by agar dilution method.
Assay [4] has as its system Streptococcus mutans. Put plainly: Antimicrobial activity against Streptococcus mutans by agar dilution method.
For assay [5], the system named is Staphylococcus. In words: Antimicrobial activity against Staphylococci.
The test system of assay [6] is Acinetobacter lwoffii. In words: Antimicrobial activity against Acinetobacter lwoffii after 18 to 24 hrs by geometric microdilution method.
Assay [7] concerns Pseudomonas aeruginosa. In words: Antimicrobial activity against Pseudomonas aeruginosa after 18 to 24 hrs by geometric microdilution method.
Assay [8] has as its system Klebsiella pneumoniae. In words: Antimicrobial activity against Klebsiella pneumoniae after 18 to 24 hrs by geometric microdilution method.
Assay [9] has as its system Escherichia coli. In words: Antimicrobial activity against Escherichia coli after 18 to 24 hrs by geometric microdilution method.

Broadly, the MIC is the least concentration at which growth counts as inhibited. A low value points to inhibition by little substance.

Each structure is given as a SMILES string. Values after ≈ are worked out from the molar mass of the structure shown.

On to `CCCCCCCCNCCC[C@@H](C)[C@H]1CC[C@H]2[C@@H]3[C@H](OCCCN)C[C@@H]4C[C@H](OCCCN)CC[C@]4(C)[C@H]3C[C@H](OCCCN)[C@]12C`, for which the minimal inhibitory concentration (MIC) in assay [1] was determined as 2 mg/L (≈ 2.95 µM); in assay [2], 1 mg/L (≈ 1.48 µM); in assay [3], 2 mg/L (≈ 2.95 µM); in assay [4], 1 mg/L (≈ 1.48 µM).
With `CCN(CC)CCCCOc1cc2oc3cc(OCCCCN(CC)CC)c(OC)c(CC=C(C)C)c3c(=O)c2c(O)c1CC=C(C)C`, the minimal inhibitory concentration (MIC) in [5] was found to be 0.095 mg/L (≈ 0.143 µM).
On to `NC[C@H]1O[C@H](O[C@H]2[C@H](O)[C@@H](OCc3ccc4ccccc4c3)[C@H](N)C[C@@H]2N)[C@H](N)[C@@H](OCc2ccc3ccccc3c2)[C@@H]1OCc1ccc2ccccc2c1`, for which the MIC in assay [6], in [7], in assay [8] and in assay [9] was 2 mg/L (≈ 2.69 µM) throughout.
